Experiments:
Assay in all cases: relative viability (nuclei count vs DMSO), 5 days (fraction); higher = more cells survive
BMX-IN-1 + Trametinib = compound: C=CC(=O)Nc1cc(-n2c(=O)ccc3cnc4ccc(-c5ccc(NS(C)(=O)=O)cc5)cc4c32)ccc1C [BMX-IN-1] + CC(=O)Nc1cccc(-n2c(=O)n(C3CC3)c(=O)c3c(Nc4ccc(I)cc4F)n(C)c(=O)c(C)c32)c1 [Trametinib] (partner 0.02 µM)
Procedure, shortened: (§1)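 The day after seeding in 1536-well plates, lung cancer cell lines were treated by pin tool with a single drug, or with a fixed anchor-drug dose together with five library-drug doses (not always all listed) in √10 steps. After 5 days, a combined fix-and-stain solution (final 0.05% Triton X-100, 1% formaldehyde, 1 ug/ml Hoechst) was added. Nuclei counted on 4× images gave relative viability as treated counts over vehicle counts, reported as the median of duplicate plates.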

Ibrutinib + Navitoclax = compound: C=CC(=O)N1CCC[C@@H](n2nc(-c3ccc(Oc4ccccc4)cc3)c3c(N)ncnc32)C1 [Ibrutinib] + CC1(C)CCC(c2ccc(Cl)cc2)=C(CN2CCN(c3ccc(C(=O)NS(=O)(=O)c4ccc(N[C@H](CCN5CCOCC5)CSc5ccccc5)c(S(=O)(=O)C(F)(F)F)c4)cc3)CC2)C1 [Navitoclax] (partner 0.5 µM)
Procedure, shortened: as §1

BMX-IN-1 + Luminespib = compound: C=CC(=O)Nc1cc(-n2c(=O)ccc3cnc4ccc(-c5ccc(NS(C)(=O)=O)cc5)cc4c32)ccc1C [BMX-IN-1] + CCNC(=O)c1noc(-c2cc(C(C)C)c(O)cc2O)c1-c1ccc(CN2CCOCC2)cc1 [Luminespib] (partner 0.01 µM)
Procedure, shortened: as §1

Ibrutinib + Phenformin = compound: C=CC(=O)N1CCC[C@@H](n2nc(-c3ccc(Oc4ccccc4)cc3)c3c(N)ncnc32)C1 [Ibrutinib] + N=C(N)NC(=N)NCCc1ccccc1 [Phenformin] (partner 250 µM)
Procedure, shortened: as §1

Cell Line	relative viability (BMX-IN-1 + Trametinib; first compound 0.02 µM)	relative viability (BMX-IN-1 + Trametinib; first compound 0.2 µM)	relative viability (BMX-IN-1 + Trametinib; first compound 0.6325 µM)	relative viability (BMX-IN-1 + Trametinib; first compound 2 µM)	relative viability (Ibrutinib + Navitoclax; first compound 0.005 µM)	relative viability (Ibrutinib + Navitoclax; first compound 0.01581 µM)	relative viability (Ibrutinib + Navitoclax; first compound 0.05 µM)	relative viability (Ibrutinib + Navitoclax; first compound 0.1581 µM)	relative viability (Ibrutinib + Navitoclax; first compound 0.5 µM)	relative viability (BMX-IN-1 + Luminespib; first compound 0.02 µM)	relative viability (BMX-IN-1 + Luminespib; first compound 0.2 µM)	relative viability (BMX-IN-1 + Luminespib; first compound 0.6325 µM)	relative viability (BMX-IN-1 + Luminespib; first compound 2 µM)	relative viability (Ibrutinib + Phenformin; first compound 0.005 µM)	relative viability (Ibrutinib + Phenformin; first compound 0.01581 µM)	relative viability (Ibrutinib + Phenformin; first compound 0.05 µM)	relative viability (Ibrutinib + Phenformin; first compound 0.1581 µM)	relative viability (Ibrutinib + Phenformin; first compound 0.5 µM)
NCI-H1666	0.788	1.06	0.977	0.885	0.762	0.806	0.521	1.06	0.451	1.05	1.08	1.04	1	0.597	0.59	0.547	0.561	0.571
NCI-H1993	0.531	0.588	0.464	0.56	0.807	0.7	0.75	–	0.742	0.854	0.805	0.829	0.737	0.487	0.575	0.534	0.509	0.624
EMC-BAC-2	0.827	0.906	0.96	1.04	1.16	1.06	1.01	1.16	1.02	1.36	1.33	1.4	1.1	0.465	0.509	0.53	0.571	0.507
NCI-H1975	0.309	0.348	0.395	0.377	1.04	1.14	1.08	1.09	0.637	0.253	0.21	0.481	0.159	0.452	0.372	0.379	0.416	0.215
NCI-H1944	0.395	0.416	0.419	0.392	0.902	0.985	0.811	0.969	0.689	0.812	0.729	0.728	0.706	0.202	0.176	0.195	0.177	0.182
NCI-H1395	1.19	1.12	0.958	0.966	1.07	–	1.15	1.54	1.17	0.745	0.546	0.71	0.887	0.281	0.404	0.468	0.442	0.405
NCI-H1437	0.677	0.489	0.605	0.614	1.14	–	1.11	1.13	1.14	1.41	1.23	1.15	1.16	0.352	0.3	0.318	0.317	0.314
NCI-H2347	0.295	0.291	0.322	0.292	0.898	0.724	0.846	0.729	0.717	0.438	0.356	0.517	0.353	–	0.447	0.332	0.294	0.239
NCI-H520	0.892	0.721	0.741	0.733	1.02	1.08	1.21	1.13	0.959	0.243	0.231	0.243	0.218	0.431	0.606	0.583	0.634	0.356
COR-L23	0.71	0.695	0.623	0.662	1.14	1	1.04	1.16	1.11	0.807	0.782	1.07	0.548	0.491	0.408	0.454	0.472	0.445
NCI-H2405	0.688	0.642	0.659	0.591	0.923	0.812	0.731	–	0.98	0.747	0.754	0.669	0.674	0.383	0.384	0.387	0.264	0.369
A-427	0.691	0.727	0.79	0.722	0.861	0.923	0.985	0.98	0.92	1.13	0.844	1.01	1.04	0.307	0.351	0.316	0.27	0.3
SK-LU-1	0.381	0.522	0.481	0.403	0.722	0.637	1.07	0.948	0.036	0.172	0.194	0.189	0.196	0.433	0.542	0.585	0.545	0.485
NCI-H2170	0.951	1.02	1.09	0.906	0.377	0.343	0.235	0.527	0.195	0.921	0.77	0.821	0.819	0.431	0.42	0.395	0.39	0.36
RERF-LC-KJ	0.967	0.897	0.867	0.909	0.872	–	0.699	0.745	0.677	1.3	1.55	1.27	1.49	0.394	0.389	0.379	0.407	0.356
LXF-289	0.722	0.704	0.761	0.752	1.02	0.895	0.956	0.97	0.917	0.816	0.809	0.825	0.671	0.537	0.472	0.515	0.465	0.497
LC-2-ad	1.02	0.945	0.929	0.94	0.408	0.362	0.535	0.477	0.402	1.16	1.1	0.884	0.974	0.552	0.579	0.56	0.478	0.531
